Literature values in patent US10357535B2, “Daptomycin formulations and uses thereof” (priority 2012, dated 2019).

Legend:
[1] = test system: MRSA; conditions: in less than one hour
[2] = test system: MSSA; conditions: in less than one hour

## CCCCCCCCCC(=O)NC(Cc1c[nH]c2ccccc12)C(=O)NC(CC(N)=O)C(=O)NC(CC(=O)O)C(=O)NC1C(=O)NCC(=O)NC(CCCN)C(=O)NC(CC(=O)O)C(=O)NC(C)C(=O)NC(CC(=O)O)C(=O)NCC(=O)NC(CO)C(=O)NC(C(C)CC(=O)O)C(=O)NC(CC(=O)c2ccccc2N)C(=O)OC1C (centres unmarked) [daptomycin, Daptomycin]
[1]
  bacteria dead: greater than 99.9%
[2]
  bacteria dead: greater than 99.9%
